# Assay results published in PMC9138545, “Incorporation of Oxidized Phenylalanine Derivatives into Insulin Signaling Relevant Proteins May Link Oxidative Stress to Signaling Conditions Underlying Chronic Insulin Resistance” (Biomedicines, 2022).
# “Also recorded” adds a separate entry of the source.
# Key:
# [1] = tested on: IR kinase (989–1382, fused to GST); assay: IR kinase phosphorylation assay, capillary electrophoresis; format: biochemical; conditions: 200 μM peptide, 875 nM IR kinase, 1 mM ATP, 5 mM MgCl2, pH 7.5
# Procedure: Enzymatically active IR kinase (989–1382, fused to GST and produced in SF9 cells) was ordered from SinoBiological (catalog number 11081-H20B1). The stock solution was aliquoted and frozen separately to preserve activity. Prior to comparative measurements, the activity of recombinant IR kinase was tested on internal control peptides and found to be suitable for kinase assays.
# The kinase assay mixture contained 200 μM peptide (GRKGSGDYMPMSPKV) and 875 nM IR kinase in kinase buffer (20 mM potassium phosphate (monobasic), 15 mM sodium phosphate (dibasic), 103 mM NaCl, 5 mM MgCl2, 5% glycerol, 0.05% Igepal; pH 7.5). The reaction was initialized by addition of 1 mM ATP. The phosphatase reaction mixture contained 80 μM peptide (GRKGSGD(phosphoY)MPMSPKV) in buffer (50 mM TRIS, 150 mM NaCl, 1 mM EDTA and 2 mM DTT; pH 7.4). The reaction was initialized by addition of 25 nM PTP1B enzyme. Equal aliquots of the kinase or the phosphatase reaction mixture were subjected to capillary electrophoresis analysis at the indicated time points after the start the reaction.
# Background electrolyte (BGE) components phosphoric acid and triethylamine were purchased from Sigma (St. Louis, MO, USA) and from Merck GmbH (Darmstadt, Germany), respectively. Capillary electrophoresis was performed with an Agilent Capillary Electrophoresis 3DCE system (Agilent Technologies, Waldbronn, Germany) applying DB-WAX coated capillary having a 33.5 cm total and 25 cm effective length with 50 μm I.D. (Agilent Technologies, Santa Clara, CA, USA). On-line absorption at 200 nm was monitored by DAD UV-Vis detector. The capillary was thermostated at 25 °C. Before measurements, the capillary was rinsed subsequently with distilled water for 15 min and between measurements with BGE (100 mM trimethylamine-phosphate buffer; pH 2.5) for 3 min. Samples were injected by 5 × 10^3 Pa pressure for 6 s. Runs were performed in the positive-polarity mode with 20 kV.
# [2] = tested on: p-IRS-1 in podocytes; assay: Immunofluorescence of p-IRS-1 in insulin-treated podocytes; format: cell-based, human; conditions: 400 nmol/l insulin for 10 min
# Procedure: (§1) The conditionally immortalized human podocyte cell line (provided by Moin Saleem, University of Bristol, UK) was cultured in RPMI1640 medium (R8756, Sigma Aldrich, Budapest, Hungary) supplemented with 10% heat-inactivated FBS (16170-078, Gibco, Budapest, Hungary), insulin-transferrin-selenium supplement (41400-045, Gibco), 100 U/mL penicillin, 0.1 mg/mL streptomycin (P4333, Sigma), and […] (equimolar to the original p-Tyr content of the medium) para-, meta-, or ortho-Tyr. The cells were grown at 33 °C 5% CO2, and when they reached 40–60% confluency they were transferred to 37 °C to differentiate. Following the thermoswitching, cells were kept on RPMI1640 medium containing 2% FBS, antibiotics, and different tyrosines. Before every treatment, cells were incubated in serum-deprived medium overnight.
# (§2) In a 6-well plate, 104 cells were cultured on glass coverslips washed with alcohol and dried under UV light. The podocyte cells were grown in RPMI1640 medium supplemented with 10% heat-inactivated FBS at 33 °C, 5% CO2. When they reached 60% confluence, the medium was changed to RPMI1640 medium containing 2% FBS and 112.05 nM of the different tyrosine isoforms, then the plates were transferred to 37 °C, 5% CO2 to allow the cells to differentiate. The different tyrosine isoforms were added to the maintenance medium. The cells were serum deprived overnight, then incubated with 400 nmol/l insulin for 10 min. After removal of the medium, the coverslips were washed twice with PBS. The cells were fixed at room temperature in 2% paraformaldehyde and 4% sucrose for 8 min, then permeabilized using 0.3% Trion X-100 in 1xPBS for 20 min and blocked in 2.5% BSA for 45 min [45]. The primary antibody was diluted in 1xPBS, and the cells were incubated in it for 60 min in humid conditions. The antibodies we used were mouse anti-WT1 antibody (H-1) (1:100, Santa Cruz Biotechnology, Dallas, TX, USA), chicken anti-vimentin antibody (1:100, Abcam), rabbit anti-glucose transporter GLUT4 antibody (1:100, Abcam, Cambridge, UK), mouse Insulin Receptor Substrate-1 antibody (1:100, Invitrogen, Waltham, MA, USA), and rabbit anti-phospho-Insulin Receptor Substrate-1 (pTyr612) antibody (1:10, Sigma). Coverslips were washed in PBS three times for 5 min in PBS and incubated in the fluorophore-conjugated secondary antibodies anti-goat, anti-chicken, secondary antibody Alexa fluor 647, anti-rabbit Alexa fluor 350, and anti-mouse Alexa Fluor 488 (1:10, Invitrogen) for 60 min. Samples were then washed in PBS three times for 5 min and mounted in Vectashield (Vector Laboratories). Images were taken with a Nikon Eclipse Ti2 microscope.
# [3] = tested on: GLUT4 and vimentin in podocytes; assay: Immunofluorescence of GLUT4 and vimentin in insulin-treated podocytes; format: cell-based, human; conditions: 400 nmol/l insulin for 10 min
# Procedure: as §1, §2
# [4] = tested on: 3T3-L1 adipocytes; assay: Isotope glucose uptake (deoxy-D-glucose 2-[1 2-3H(N)]) in differentiated 3T3-L1 adipocytes; format: cell-based, mouse
# Procedure: (§3) Early passages of mouse embryo fibroblast (3T3-L1) (ATCC, Manassas, VA, US) were cultured in Dulbecco’s modified Eagle medium (DMEM, Sigma Aldrich, Budapest, Hungary, CAT number: D6046; Invitrogen, Waltham, MA, USA, CAT number: 41966-029) supplemented with 100 U/mL penicillin, 0.1 mg/mL streptomycin (Gibco, Budapest, Hungary, CAT number: 15070-063) and 10% heat-inactivated Fetal Bovine Serum (FBS, Gibco, CAT number: 16170-078), supplemented with 398 nM p-, m-, or o-Tyr (equimolar to the original p-Tyr content of the medium) purchased from Sigma (CAT number: para-Tyr: T8566, m-Tyr: T3629, o-Tyr: 93851). Media contained 25 or 5 mmol/L glucose (experiment dependent) pyruvate and L-glutamine. Cells were grown at 37 °C and 5% CO2. Adipocyte differentiation was achieved by DMEM supplemented with 10% FBS (Gibco, Csertex, Budapest, Hungary, CAT number: 10106-169) (FBS) and a […] insulin (Sigma Aldrich, Budapest, Hungary, CAT number: I 9278), […] isobuthylmethylxanthine (Sigma Aldrich, Budapest, Hungary, CAT number: I 5879), and 250 nmol/L dexamethasone (Sigma Aldrich, Budapest, Hungary, CAT number: 861871) containing cocktail. From day 4 onward, cultures were maintained in DMEM containing 1.5 μg/mL insulin and 10% FBS with a medium change every other day until experimental treatments were started. After 90% of the cell population reached the adipocyte phenotype, prior to all treatments, cells were incubated overnight in serum-deprived medium. Experimental treatment was performed in serum-deprived medium containing 200 or 400 nmol/L insulin, for 5 min.
# Initially, cells were kept in glucose-free DMEM (Gibco, Csertex, Budapest, Hungary) for 30 min and then were treated with 2, 20, 200, or 400 nmol/L insulin for 100 min. Concurrently, 1 μCi/mL deoxy-D-glucose 2-[1 2-3H(N)] (3.7 × 104 Bq/mL) (Izotóp Intézet, Budapest, Hungary) was added to the plates for 100 min. After scraping the cells into the medium, they were centrifuged for 5 min at 1000 rpm. We dissolved the sediment in 70 μL of lysis buffer, then glucose uptake was determined by scintillation counting by measuring 30 μL of the sample, using a Beckman LS 5000 TD counter, in counts per minute (CPM), for five minutes each, with average activity was used as the outcome. Following freezing overnight at −70 °C, protein concentration was measured with a Hitachi spectrophotometer. Results were normalized for protein content.
# [5] = tested on: 3T3-L1 adipocytes; assay: HPLC of non-protein-bound intracellular tyrosines; format: cell-based, mouse; conditions: 5 or 25 mmol/L glucose, with or without 400 nmol/L insulin
# Procedure: as §3
# To measure the total intracellular non-protein-bound tyrosine concentration, prior to the freezing of samples overnight at −70 °C to achieve cell lysis, 200 μL distilled water was added to each. After melting up, samples were centrifuged for 15 min at 15,000 rpm. A total of 200 µL of the supernatant was mixed with 200 µL of 60% trichloroacetic acid. After 30 min incubation on ice, samples were centrifuged again at 15,000 rpm for 15 min. Then, the supernatant was filtered and was diluted 5-fold and then 160 µL distilled water was added to 40 µL of filtrate, followed by the injection of the mixture onto the HPLC column.
# The amounts of p-, o-, m-Tyr and Phe in the samples were determined by measuring their autofluorescence. Thus, no derivatization or staining was needed. Samples were measured on a Shimadzu Class 10 HPLC system equipped with an RF-10 AXL fluorescent detector (Shimadzu USA Manufacturing Inc., Canby, OR, USA). The mobile phase consisted of 1% sodium acetate and 1% acetic acid dissolved in water. The separation took place on a LiChroCHART 250-4 column (Merck KGaA, Darmstadt 64271, Germany) in an isocratic run. Wavelengths of 275 nm for excitation and 305 nm for emission were used to assess p-, o- and m-Tyr, while Phe was detected at 258 nm excitation and 288 nm emission wavelengths. Determination of the area under the curve (AUC) plus external standard calibration was used to calculate the precise concentrations of the amino acids.
# [6] = tested on: IRS-1 (Tyr612); assay: Western blot, activating phosphorylation of IRS-1 (Tyr612); format: cell-based; conditions: 400 nmol/L insulin; adipocytes, HEK cells, podocytes, macrophages; n = 4–8
# Procedure: as §3, §1
# (§4) HEK-293 immortalized cell line (ATCC, Manassas, VA, USA) of epithelial morphology and the J774A.1 mouse BALB/C monocyte-macrophage cell lines (91051511-1VL, Sigma Aldrich, Budapest, Hungary) were cultured in Petri dishes with a medium composed of Dulbecco’s modified Eagle’s medium (DMEM, Sigma Aldrich, Budapest, Hungary, CAT number: D6046, Invitrogen, CAT number: 41966-029), with a 10% heat-inactivated FBS supplementation (16170-078, Gibco), insulin-transferrin-selenium supplement (41400-045, Gibco, Budapest, Hungary,), 100 U/mL penicillin and 0.1 mg/mL streptomycin (P4333, Sigma) and 398 nM para (5 and 25 mmol/L), meta-, or ortho-Tyr (T8566, T3629, 93851, Sigma). Before treatment, cells were incubated in serum-deprived medium overnight as well. […]
# (§5) The samples of lysates were vortexed and centrifuged (10 min, 13,000 rpm, at 4 °C). Protein content of the samples was determined by the Lowry method using bovine serum albumin as a standard. […]
# [7] = tested on: Akt (Ser473); assay: Western blot, activating phosphorylation of Akt (Ser473); format: cell-based; conditions: 400 nmol/L insulin; adipocytes, HEK cells, podocytes, macrophages; n = 4–8
# Procedure: as §3, §1, §4, §5
compound,measurement,setting,value
"GRKGSGDF(3-hydroxy)MPMSPKV [m-tyrosine containing peptides, unphosphorylated meta-tyrosine IRS-1 YXXM motif peptide]",phosphorylation by IR kinase,[1],neither o- nor m-tyrosine containing peptides are substrates for the IR kinase
same,phosphorylation by IR kinase,[1]; listed as meta-tyrosine peptides,very poor substrates
"GRKGSGDF(2-hydroxy)MPMSPKV [o-tyrosine containing peptides, unphosphorylated ortho-tyrosine IRS-1 YXXM motif peptide]",phosphorylation by IR kinase,[1],neither o- nor m-tyrosine containing peptides are substrates for the IR kinase
same,phosphorylation by IR kinase,[1]; listed as ortho-tyrosine peptides,very poor substrates
"N[C@@H](Cc1ccc(O)cc1)C(=O)O [p-Tyr, para-tyrosine, reference compound]",membrane translocation of IRS-1 / p-IRS-1,[2],clearly demonstrated; also recorded: located in the membrane
same,p-IRS-1 intensity,[2]; vs. p-Tyr,more intense
same,GLUT4 membrane localization,[3],characteristic localization of GLUT-4 positivity; also recorded: GLUT4 aggregates are transported to the membrane
same,reversal of inhibitory effect of o- and m-Tyr on glucose uptake,"[4]; increasing p-Tyr concentrations, with or without 400 nmol/L insulin, n = 10",ameliorated by increasing concentrations of p-Tyr
same,cellular uptake of amino acids (non-protein-bound intracellular content),[5],continuous uptake of amino acids which was independent of glucose concentration (5 or 25 mmol/L) and the presence of insulin
"GRKGSGDF(4-hydroxy)MPMSPKV [p-Tyr containing “natural” peptide, unphosphorylated para-tyrosine IRS-1 YXXM motif peptide]",phosphorylation by IR kinase,[1],efficiently phosphorylated
"insulin: insulin (Sigma Aldrich, I 9278)",insulin-induced IRS-1 phosphorylation,[6],approximately two-fold
same,insulin-induced Akt phosphorylation,[7],approximately two-fold
same,"insulin-induced glucose uptake, time dependence","[4]; 200 nmol/L insulin, cells grown 1, 2, 3, 4, 5 or 12 days with p-, m- or o-Tyr, n = 5–8",approximately two-fold
same,"insulin-induced glucose uptake, 5 mmol/L glucose","[4]; 2, 20, 200, 400 nmol/L insulin, 5 mmol/L glucose, medium with p-, m- or o-Tyr",marked increase in glucose uptake in 5 mmol/L glucose
